Experimental data published in patent US6670367B1, “Azinyloxy, and phenoxy-diaryl-carboxylic acid derivatives, their preparation and use as mixed ETA/ETB endothelin receptor antagonists” (Abbott GmbH & Co., KG, priority 1996, dated 2003).

Key:
human ETA receptor = biological target: T1, human ETA receptor (Homo sapiens, UniProt P25101); test: ETA receptor binding assay (125I-ET1, membranes of receptor-expressing CHO cells); details: cloned human ETA receptor, CHO cell membranes, 25 pM 125I-ET1, 25° C., 30 min
T1 construct: expressed in transfected cells; host or cells: CHO cells (membrane preparation)
T1 sequence (P25101 21-427): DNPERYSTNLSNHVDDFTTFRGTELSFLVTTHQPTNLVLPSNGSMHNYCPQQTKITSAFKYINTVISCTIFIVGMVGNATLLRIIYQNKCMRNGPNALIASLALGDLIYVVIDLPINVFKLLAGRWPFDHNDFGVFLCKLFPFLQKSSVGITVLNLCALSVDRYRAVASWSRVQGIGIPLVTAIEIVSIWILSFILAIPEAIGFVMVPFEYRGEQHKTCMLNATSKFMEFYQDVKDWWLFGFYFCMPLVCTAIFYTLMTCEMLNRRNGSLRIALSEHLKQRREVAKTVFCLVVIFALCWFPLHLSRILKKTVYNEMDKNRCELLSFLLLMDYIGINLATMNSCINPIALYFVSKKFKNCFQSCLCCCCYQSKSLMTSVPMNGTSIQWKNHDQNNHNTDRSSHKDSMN
Experimental: (§1) Cloned human ETA or ETB receptor-expressing CHO cells were employed for binding studies.
(§2) The ETA or ETB receptor-expressing CHO cells were grown in DMEM NUT MIX F12 medium (Gibco, No. 21331-020) with 10% fetal calf serum (PAA Laboratories GmbH, Linz, No. A15-022), 1 mM glutamine (Gibco No. 25030-024), 100 U/ml penicillin and 100 μg/ml streptomycin (Gibco, Sigma No. P-0781). After 48 hours, the cells were washed with PBS and incubated with 0.05% trypsin-containing PBS at 37° C. for 5 minutes. Neutralization with medium was then carried out, and the cells were collected by centrifugation at 300×g.
(§3) For the membrane preparation, the cells were adjusted to a concentration of 10^8 cells/ml of buffer (50 mM tris.HCL buffer, pH 7.4) and then disintegrated by ultrasound (Branson Sonifier 250, 40-70 seconds/constant/output 20).
(§4) For the ETA and ETB receptor binding assays, the membranes were suspended in incubation buffer (50 mM tris-HCl, pH 7,4 with 5 mM MnCl2, 40 μg/ml bacitracin and 0.2% BSA) at a concentration of 50 μg of protein per assay mixture, and incubated with 25 pM ^125I-ET1 (ETA receptor assay) or 25 pM ^125I-ET3 (ETB receptor assay) in the presence and absence of test substance at 25° C. The nonspecific binding was determined with 10^−7 M ET1. Filtration was carried out after 30 min through GF/B glassfiber filters (Whatman, England) in a Skatron cell collector (Skatron, Lier, Norway) to separate free and bound radio ligands, and the filters were washed with ice-cold tris-HCl buffer, pH 7.4 with 0.2% BSA. The radioactivity collected on the filters was quantified using a
(§5) Packard 2200 CA liquid scintillation counter.

human ETB receptor = biological target: T2, human ETB receptor (Homo sapiens, UniProt P24530); test: ETB receptor binding assay (125I-ET3, membranes of receptor-expressing CHO cells); details: cloned human ETB receptor, CHO cell membranes, 25 pM 125I-ET3, 25° C., 30 min
T2 construct: expressed in transfected cells; host or cells: CHO cells (membrane preparation)
T2 sequence (P24530 27-442): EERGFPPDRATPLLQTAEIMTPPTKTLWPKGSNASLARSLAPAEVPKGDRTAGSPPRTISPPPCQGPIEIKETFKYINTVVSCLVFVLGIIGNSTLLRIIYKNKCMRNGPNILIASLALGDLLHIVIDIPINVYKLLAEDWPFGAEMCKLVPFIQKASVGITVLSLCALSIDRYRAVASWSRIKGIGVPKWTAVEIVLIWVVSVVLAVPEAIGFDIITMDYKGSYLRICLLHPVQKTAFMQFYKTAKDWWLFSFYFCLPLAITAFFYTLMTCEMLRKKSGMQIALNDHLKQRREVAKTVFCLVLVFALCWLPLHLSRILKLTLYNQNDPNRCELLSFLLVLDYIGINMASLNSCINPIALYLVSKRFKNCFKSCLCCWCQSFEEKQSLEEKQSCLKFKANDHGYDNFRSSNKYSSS
Experimental: as §1, §2, §3, §4, §5

Row | Compound | melting point | Ki (human ETA receptor) [nM] | Ki (human ETB receptor) [nM]
1 | Cc1cc(C)nc(OC(C(=O)O)C(O/C=C/Cc2ccccc2)(c2ccccc2)c2ccccc2)n1 (stereo not shown) [Compound I-27, 2-(4,6-Dimethyl-2-pyrimidinyloxy)-3-(3-phenyl-(2E)-propenoxy)-3,3-diphenylpropionic Acid] | 128 to 133 °C | – | –
2 | COc1cc(C)nc(OC(C(=O)O)C(O/C=C/Cc2ccccc2)(c2ccccc2)c2ccccc2)n1 (stereo not shown) [Compound I-44, 2-(4-Methoxy-6-methyl-2-pyrimidinyloxy)-3-(3-phenyl-(2E)-propenoxy)-3,3-diphenylpropionic Acid] | 171 to 174 °C | – | –
3 | CCCOc1ccc(CCOC(c2ccccc2)(c2ccccc2)C(Oc2nc(C)cc(OC)n2)C(=O)O)cc1 (stereo not shown) [Compound I-69, 2-(4-Methoxy-6-methyl-2-pyrimidinyloxy)-3-(2-(4-propoxyphenyl)ethoxy)-3,3-diphenylpropionic Acid] | 115 to 119 °C | – | –
4 | CCCCOc1ccc(CCOC(c2ccccc2)(c2ccccc2)C(Oc2nc(C)cc(C)n2)C(=O)O)cc1 (stereo not shown) [Compound I-70, 2-(4,6-Dimethyl-2-pyrimidinyloxy)-3-(2-(4-butoxyphenyl)ethoxy)-3,3-diphenylpropionic Acid] | 122 to 125 °C | – | –
5 | CCCCOc1ccc(CCOC(c2ccccc2)(c2ccccc2)C(Oc2nc(C)cc(OC)n2)C(=O)O)cc1 (stereo not shown) [Compound I-71, 2-(4-Methoxy-6-methyl-2-pyrimidinyloxy)-3-(2-(4-butoxyphenyl)ethoxy)-3,3-diphenylpropionic Acid] | 118 to 122 °C | – | –
6 | CCc1ccc(C(OCCc2ccc(OC)c(OC)c2)(c2ccc(CC)cc2)C(Oc2nc(C)cc(OC)n2)C(=O)O)cc1 (stereo not shown) [Compound I-116, 2-(4-Methoxy-6-methyl-2-pyrimidinyloxy)-3-(2-(3,4-dimethoxyphenyl)ethoxy)-3,3-di(4-ethylphenyl)propionic Acid] | – | 35 | 35
7 | COc1ccccc1CCOC(c1ccccc1)(c1ccccc1)C(Oc1nc(OC)c2c(n1)OCC2)C(=O)O (stereo not shown) [Compound I-140] | – | 575 | 460
8 | CCOc1ccc(CCOC(c2ccccc2)(c2ccccc2)C(Oc2nc(C)cc(C)n2)C(=O)O)cc1OC (stereo not shown) [Compound I-146, 2-(4,6-Dimethyl-2-pyrimidinyloxy)-3-(2-(4-ethoxy-3-methoxyphenyl)ethoxy)-3,3-diphenylpropionic Acid] | – | 4 | 29
9 | CCc1ccc(C(OCCc2ccc(OC)cc2)(c2ccc(CC)cc2)C(Oc2nc(C)cc(OC)n2)C(=O)O)cc1 (stereo not shown) [Compound I-147, 2-(4-Methoxy-6-methyl-2-pyrimidinyloxy)-3-(2-(4-methoxyphenyl)ethoxy)-3,3-di(4-ethylphenyl)propionic Acid] | 150 to 155 °C | – | –
10 | CCc1ccc(C(OCCc2ccc(OC)cc2)(c2ccc(CC)cc2)C(Oc2nc(C)cc(C)n2)C(=O)O)cc1 (stereo not shown) [Compound I-148, 2-(4,6-Dimethyl-2-pyrimidinyloxy)-3-(2-(4-methoxyphenyl)ethoxy)-3,3-di(4-ethylphenyl)propionic Acid] | 130 to 133 °C | – | –
11 | COc1cc(CCOC(c2ccccc2)(c2ccccc2)C(Oc2nc3c(c(OC)n2)CCC3)C(=O)O)cc(OC)c1 (stereo not shown) [Compound I-321] | – | 340 | 290
12 | COc1ccc(CCOC(c2ccc(C)cc2)(c2ccc(C)cc2)C(Oc2nc(OC)c3c(n2)OCC3)C(=O)O)cc1 (stereo not shown) [Compound I-355] | – | 132 | 82
13 | Cc1cc(C)nc(OC(C(=O)O)C(OCCCc2ccccc2Cl)(c2ccccc2)c2ccccc2)n1 (stereo not shown) [Compound I-384, 2-(4,6-Dimethyl-2-pyrimidinyloxy)-3-(3-(2-chlorophenyl)propoxy)-3,3-diphenylpropionic Acid] | 172 to 178 °C | – | –
14 | COc1cc(C)nc(OC(C(=O)O)C(OCCc2ccc(C)cc2)(c2ccccc2)c2ccccc2)n1 (stereo not shown) [Compound I-465, 2-(4-Methoxy-6-methyl-2-pyrimidinyloxy)-3-(2-(4-methylphenyl)ethoxy)-3,3-diphenylpropionic Acid] | 145 to 147 °C | – | –
15 | COc1cc(C)nc(OC(C(=O)O)C(OCCc2ccc(OC)c(OC)c2)(c2ccccc2)c2ccccc2)n1 (stereo not shown) [Compound I-482, 2-(4-Methoxy-6-methyl-2-pyrimidinyloxy)-3-(2-(3,4-dimethoxyphenyl)ethoxy)-3,3-diphenylpropionic Acid] | – | 2 | 14
16 | COc1cc(C)nc(OC(C(=O)O)C(OCCc2ccccc2OC)(c2ccc(Cl)cc2)c2ccc(Cl)cc2)n1 (stereo not shown) [Compound I-487, 2-(4-Methoxy-6-methyl-2-pyrimidinyloxy)-3-(2-(2-methoxyphenyl)ethoxy)-3,3-di(4-chlorophenyl)propionic Acid] | 85 to 90 °C | – | –
17 | COc1cc(C)nc(OC(C(=O)O)C(OCCCc2ccccc2)(c2ccccc2)c2ccccc2)n1 (stereo not shown) [Compound I-499, 2-(4-Methoxy-6-methyl-2-pyrimidinyloxy)-3-(3-phenylpropoxy)-3,3-diphenylpropionic Acid] | – | 31 | 135
18 | COc1ccc(CCCOC(c2ccccc2)(c2ccccc2)C(Oc2nc(C)cc(OC)n2)C(=O)O)cc1 (stereo not shown) [Compound I-554, 2-(4-Methoxy-6-methyl-2-pyrimidinyloxy)-3-(3-(4-methoxyphenyl)propoxy)-3,3-diphenylpropionic Acid] | 160 to 165 °C | – | –
19 | COc1ccc(CCCOC(c2ccccc2)(c2ccccc2)C(Oc2nc(C)cc(C)n2)C(=O)O)cc1 (stereo not shown) [Compound I-555, 2-(4,6-Dimethyl-2-pyrimidinyloxy)-3-(3-(4-methoxyphenyl)propoxy)-3,3-diphenylpropionic Acid] | 165 to 170 °C | – | –
20 | COc1ccc(CCOC(c2ccccc2)(c2ccccc2)C(Oc2nc(C)cc(C)n2)C(=O)O)cc1 (stereo not shown) [Compound I-585, 2-(4,6-Dimethyl-2-pyrimidinyloxy)-3-(2-(4-methoxyphenyl)ethoxy)-3,3-diphenylpropionic Acid] | – | 6 | 23
21 | COc1ccc(CCOC(c2ccccc2)(c2ccccc2)C(Oc2nc(C)cc(OC)n2)C(=O)O)cc1 (stereo not shown) [Compound I-622, 2-(4-Methoxy-6-methyl-2-pyrimidinyloxy)-3-(2-(4-methoxyphenyl)ethoxy)-3,3-diphenylpropionic Acid] | – | 3 | 23
22 | COc1cc(C)nc(OC(C(=O)O)C(OCCc2ccc(C)cc2)(c2ccc(Cl)cc2)c2ccc(Cl)cc2)n1 (stereo not shown) [Compound I-710, 2-(4-Methoxy-6-methyl-2-pyrimidinyloxy)-3-(2-(4-methylphenyl)ethoxy)-3,3-di(4-chlorophenyl)propionic Acid] | 90 to 100 °C | – | –
23 | COc1cc(C)nc(OC(C(=O)O)C(OCCc2ccccc2)(c2ccccc2)c2ccccc2)n1 (stereo not shown) [Compound I-719, 2-(4-Methoxy-6-methyl-2-pyrimidinyloxy)-3-(2-phenylethoxy)-3,3-diphenylpropionic Acid] | 155 °C (dec.) | – | –
24 | Cc1cc(C)nc(OC(C(=O)O)C(OCCc2ccccc2)(c2ccccc2)c2ccccc2)n1 (stereo not shown) [Compound I-720, 2-(4,6-Dimethyl-2-pyrimidinyloxy)-3-(2-phenylethoxy)-3,3-diphenyl propionic Acid] | 130 to 133 °C | – | –
25 | COc1cc(C)nc(OC(C(=O)O)C(OCCc2ccc(Cl)cc2)(c2ccccc2)c2ccccc2)n1 (stereo not shown) [Compound I-746, 2-(4-Methoxy-6-methyl-2-pyrimidinyloxy)-3-(2-(4-chlorophenyl)ethoxy)-3,3-diphenylpropionic Acid] | 93 to 98 °C | – | –
